The term EC50 denotes the midpoint of the concentration-response curve. A higher EC50 goes with a need for much substance.

The values below come from patent US10450306B2, “Isoxazole analogs as FXR agonists and methods of use thereof” (Enanta Pharmaceuticals, Inc., priority 2016, dated 2019).

In the assay the target is T1, human FXR (NR1H4) (Homo sapiens, UniProt Q96RI1).
T1 construct: host or cells: CHO (Chinese hamster ovary) reporter cells
T1 sequence (Q96RI1 1-486): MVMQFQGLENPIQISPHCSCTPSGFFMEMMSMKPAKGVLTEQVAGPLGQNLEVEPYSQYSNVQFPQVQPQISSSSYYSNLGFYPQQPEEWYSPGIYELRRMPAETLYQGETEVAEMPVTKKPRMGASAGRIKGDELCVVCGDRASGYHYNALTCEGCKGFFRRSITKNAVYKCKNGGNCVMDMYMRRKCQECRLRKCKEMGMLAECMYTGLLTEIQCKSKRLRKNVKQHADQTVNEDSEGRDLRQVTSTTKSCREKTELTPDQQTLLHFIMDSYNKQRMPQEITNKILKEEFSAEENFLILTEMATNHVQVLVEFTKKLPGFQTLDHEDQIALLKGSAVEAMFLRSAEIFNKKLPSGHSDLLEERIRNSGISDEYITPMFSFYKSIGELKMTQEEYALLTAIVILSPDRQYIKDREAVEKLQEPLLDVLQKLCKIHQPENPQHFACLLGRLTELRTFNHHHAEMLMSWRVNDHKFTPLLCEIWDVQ
The assay can be described thus: Human FXR (NR1H4) Assay: Gal4 promoter driven luciferase reporter transactivation in CHO cells (Indigo Bioscience kit IB00601). For Efficacy (%): efficacy normalized to CDCA set as 100%. To be noted: for Emax: CHO, read-out: Efficacy (%); for EC50: Human FXR (NR1H4) reporter assay, potency ranges. Type of assay: cell-based. The method in brief: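 Luminescence read-out after 22 h exposure quantified FXR transactivation; compounds were tested at several doses, 0.2% DMSO, in CHO cells engineered with human NR1H4 and a luciferase gene linked to an FXR-responsive promoter.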
Background: Reporter assays use an easily measured gene product as a stand-in for the process of interest.

For the compound `CC(C)Oc1cc(C(=O)O)cc2sc(N3CCC(NCc4c(-c5ccccc5OC(F)(F)F)noc4C4CC4)CC3)nc12` [Example 640], the Emax was 92.3% and the EC50 lay in the range of 0.001 to 0.1 µM.

With `COC(=O)c1cc(F)c2nc(N3CCC(NCc4c(-c5ccccc5OC(F)(F)F)noc4C4CC4)CC3)sc2c1` [Example 641], the Emax is 40% and the EC50 was 0.1 to 1 µM.

For `O=C(O)c1cc(F)c2nc(N3CCC(NCc4c(-c5ccccc5OC(F)(F)F)noc4C4CC4)CC3)sc2c1` [Example 642], the Emax was determined as 85.3% and the EC50 lay in the range of 0.1 to 1 µM.

For the compound `COC(=O)c1cc(C2CC2)c2nc(N3C4CCC3CC(NCc3c(-c5ccccc5OC(F)(F)F)noc3C3CC3)C4)sc2c1` (stereo not drawn) [Example 643], the Emax is 52% and the EC50 was 0.001 to 0.1 µM.

In the case of `O=C(O)c1cc(C2CC2)c2nc(N3C4CCC3CC(NCc3c(-c5ccccc5OC(F)(F)F)noc3C3CC3)C4)sc2c1` (stereo not drawn) [Example 644], the Emax came out at 94.5% and the EC50 was less than 0.001 µM.

For `O=C(O)c1cc(F)c(N2C3CCC2CC(NCc2c(-c4ccccc4OC(F)(F)F)noc2C2CC2)C3)c(F)c1` (stereo not drawn) [Example 646], the Emax was found to be 105% and the EC50 fell in the range of 0.001 to 0.1 µM.

As for `O=C(NS(=O)(=O)C1CC1)c1cnc2nc(N3C4CCC3CC(NCc3c(-c5ccccc5OC(F)(F)F)noc3C3CC3)C4)sc2n1` (stereo not drawn) [Example 695], the Emax is 75% and the EC50 fell in the range of 0.001 to 0.1 µM.

For `CCOC(=O)c1ccc2nc(N3C4CCC3CC(NCc3c(-c5ccccc5OC(F)(F)F)noc3C3CC3)C4)sc2c1` (stereo not drawn) [Example 696], the Emax worked out at 59.1% and the EC50 was in the range of 0.001 to 0.1 µM.

In the case of `CC1(S(=O)(=O)NC(=O)c2ccc3nc(N4C5CCC4CC(NCc4c(-c6ccccc6OC(F)(F)F)noc4C4CC4)C5)sc3c2)CC1` (stereo not drawn) [Example 702], the Emax was 113% and the EC50 lay within 0.001 to 0.1 µM.

In the case of `O=C(NS(=O)(=O)C1CC1)c1ccc2nc(N3CCC(NCc4c(-c5ccccc5OC(F)(F)F)noc4C4CC4)CC3)sc2c1` [Example 791], the Emax is 63% and the EC50 is greater than 1 µM.

Regarding `CC1(S(=O)(=O)NC(=O)c2ccc3nc(N4CCC(NCc5c(-c6ccccc6OC(F)(F)F)noc5C5CC5)CC4)sc3c2)CC1` [Example 900-1], the Emax turned out to be 80.5% and the EC50 lay within 0.1 to 1 µM.

For `CC1(S(=O)(=O)NC(=O)c2cc(F)c3nc(N4C5CCC4CC(NCc4c(-c6ccccc6OC(F)(F)F)noc4C4CC4)C5)sc3c2)CC1` (stereo not drawn) [Example 900-2], the Emax was 109% and the EC50 fell in the range of 0.001 to 0.1 µM.

With `O=C(NS(=O)(=O)C1CC1)c1cc(F)c2nc(N3CCC(NCc4c(-c5ccccc5OC(F)(F)F)noc4C4CC4)CC3)sc2c1` [Example 900-3], the Emax was found to be 44.8% and the EC50 fell in the range of 0.1 to 1 µM.

As to `CC1(S(=O)(=O)NC(=O)c2cc(F)c3nc(N4CCC(NCc5c(-c6ccccc6OC(F)(F)F)noc5C5CC5)CC4)sc3c2)CC1` [Example 900-4], the Emax came out at 84.8% and the EC50 was greater than 1 µM.

In the case of `CC(C)Oc1cc(C(=O)NS(=O)(=O)C2CC2)cc2sc(N3CCC(NCc4c(-c5ccccc5OC(F)(F)F)noc4C4CC4)CC3)nc12` [Example 900-5], the Emax turned out to be 68.5% and the EC50 lay in the range of 0.1 to 1 µM.

Consider `CC(C)Oc1cc(C(=O)NS(=O)(=O)C2(C)CC2)cc2sc(N3CCC(NCc4c(-c5ccccc5OC(F)(F)F)noc4C4CC4)CC3)nc12` [Example 900-6], for which the Emax amounted to 112% and the EC50 lay in the range of 0.001 to 0.1 µM.

For the compound `CC1(S(=O)(=O)NC(=O)c2cc(C3CC3)c3nc(N4C5CCC4CC(NCc4c(-c6ccccc6OC(F)(F)F)noc4C4CC4)C5)sc3c2)CC1` (stereo not drawn) [Example 900-9], the Emax was determined as 122% and the EC50 was less than 0.001 µM.

For `O=C(NS(=O)(=O)C1CC1)c1cc(F)c(N2C3CCC2CC(NCc2c(-c4ccccc4OC(F)(F)F)noc2C2CC2)C3)c(F)c1` (stereo not drawn) [Example 900-11], the Emax turned out to be 70.5% and the EC50 lay in the range of 0.001 to 0.1 µM.

Regarding `CC1(S(=O)(=O)NC(=O)c2cc(F)c(N3C4CCC3CC(NCc3c(-c5ccccc5OC(F)(F)F)noc3C3CC3)C4)c(F)c2)CC1` (stereo not drawn) [Example 900-12], the Emax was determined as 67% and the EC50 lay within 0.001 to 0.1 µM.

`O=C(NS(=O)(=O)C1CC1)c1ccc(N2C3CCC2CC(NCc2c(-c4ccccc4OC(F)(F)F)noc2C2CC2)C3)nc1` (stereo not drawn) [Example 900-13]: the Emax was 59.5% and the 50% effective concentration (EC50) was in the range of 0.001 to 0.1 µM.

As for `CC1(S(=O)(=O)NC(=O)c2ccc(N3C4CCC3CC(NCc3c(-c5ccccc5OC(F)(F)F)noc3C3CC3)C4)nc2)CC1` (stereo not drawn) [Example 900-14], the Emax came out at 46.5% and the EC50 was in the range of 0.1 to 1 µM.

With `O=C(NS(=O)(=O)C1CC1)c1ccc2nc(N3C4CCC3CC(NCc3c(-c5ccccc5OC(F)(F)F)noc3C3CC3)C4)ccc2c1` (stereo not drawn) [Example 900-15], the Emax turned out to be 82.5% and the EC50 was in the range of 0.001 to 0.1 µM.

Turning to `CC1(S(=O)(=O)NC(=O)c2ccc3nc(N4C5CCC4CC(NCc4c(C6CCC7(CC6)CC7)noc4C4CC4)C5)sc3c2)CC1` (stereo not drawn) [Example 1202], the Emax came to 85.5% and the EC50 was 0.001 to 0.1 µM.

For the compound `CC(C)Oc1cc(C(=O)O)cc2sc(N3C4CCC3CC(NCc3c(-c5ccccc5C(F)(F)F)noc3C3CC3)C4)nc12` (stereo not drawn) [Example 1401], the Emax was 125% and the EC50 lay within 0.1 to 1 µM.

As to `CC(C)Oc1cc(C(=O)NS(=O)(=O)C2(C)CC2)cc2sc(N3C4CCC3CC(NCc3c(-c5ccccc5C(F)(F)F)noc3C3CC3)C4)nc12` (stereo not drawn) [Example 1402], the Emax was 136% and the EC50 is 0.001 to 0.1 µM.

On to `COC(=O)c1cc(OC(C)C)c2nc(N3C4CCC3CC(NCc3c(-c5ccccc5C(F)(F)F)noc3C3CC3)C4)sc2c1` (stereo not drawn) [Example 1403], for which the Emax worked out at 119% and the EC50 fell in the range of 0.001 to 0.1 µM.

On to `COC(=O)c1cc(C)c2nc(N3C4CCC3CC(NCc3c(-c5ccccc5C(F)(F)F)noc3C3CC3)C4)sc2c1` (stereo not drawn) [Example 1404], for which the Emax amounted to 46% and the EC50 is 0.1 to 1 µM.

As for `Cc1cc(C(=O)O)cc2sc(N3C4CCC3CC(NCc3c(-c5ccccc5C(F)(F)F)noc3C3CC3)C4)nc12` (stereo not drawn) [Example 1405], the Emax was found to be 125% and the EC50 was in the range of 0.001 to 0.1 µM.

`Cc1cc(C(=O)NS(=O)(=O)C2(C)CC2)cc2sc(N3C4CCC3CC(NCc3c(-c5ccccc5C(F)(F)F)noc3C3CC3)C4)nc12` (stereo not drawn) [Example 1406]: the Emax was determined as 133% and the EC50 was less than 0.001 µM.

For the compound `COC(=O)c1cc(F)c2nc(N3C4CCC3CC(NCc3c(-c5ccccc5C(F)(F)F)noc3C3CC3)C4)sc2c1` (stereo not drawn) [Example 1407], the Emax was found to be 92.5% and the EC50 was 0.001 to 0.1 µM.

Regarding `O=C(O)c1cc(F)c2nc(N3C4CCC3CC(NCc3c(-c5ccccc5C(F)(F)F)noc3C3CC3)C4)sc2c1` (stereo not drawn) [Example 1408], the Emax is 103% and the EC50 lay within 0.001 to 0.1 µM.

Consider `COC(=O)c1cc(C2CC2)c2nc(N3C4CCC3CC(NCc3c(-c5ccccc5C(F)(F)F)noc3C3CC3)C4)sc2c1` (stereo not drawn) [Example 1409], for which the Emax worked out at 52% and the EC50 lay within 0.001 to 0.1 µM.

With `O=C(O)c1cc(C2CC2)c2nc(N3C4CCC3CC(NCc3c(-c5ccccc5C(F)(F)F)noc3C3CC3)C4)sc2c1` (stereo not drawn) [Example 1410], the Emax is 74.5% and the EC50 was less than 0.001 µM.

For `O=C(O)c1ccc2nc(N3C4CCC3CC(NCc3c(-c5c(F)cccc5F)noc3C3CC3)C4)sc2c1` (stereo not drawn) [Example 1411], the Emax is 94.7% and the EC50 fell in the range of 0.001 to 0.1 µM.

In the case of `CCOC(=O)c1ccc2nc(N3C4CCC3CC(NCc3c(-c5ccccc5C(F)(F)F)noc3C3CC3)C4)sc2c1` (stereo not drawn) [Example 1412], the Emax worked out at 75% and the EC50 was in the range of 0.1 to 1 µM.

On to `O=C(O)c1ccc2nc(N3C4CCC3CC(NCc3c(-c5ccccc5C(F)(F)F)noc3C3CC3)C4)sc2c1` (stereo not drawn) [Example 1413], for which the Emax is 90.7% and the EC50 lay in the range of 0.001 to 0.1 µM.

On to `O=C(NS(=O)(=O)C1CC1)c1cc(C2CC2)c2nc(N3C4CCC3CC(NCc3c(-c5ccccc5C(F)(F)F)noc3C3CC3)C4)sc2c1` (stereo not drawn) [Example 1414], for which the Emax worked out at 89.5% and the 50% effective concentration (EC50) was less than 0.001 µM.

As to `CC(C)Oc1cc(C(=O)NS(=O)(=O)C2CC2)cc2sc(N3C4CCC3CC(NCc3c(-c5ccccc5C(F)(F)F)noc3C3CC3)C4)nc12` (stereo not drawn) [Example 1415], the Emax was 106% and the EC50 fell in the range of 0.001 to 0.1 µM.

For the compound `O=C(NS(=O)(=O)C1CC1)c1ccc2nc(N3C4CCC3CC(NCc3c(-c5ccccc5C(F)(F)F)noc3C3CC3)C4)sc2c1` (stereo not drawn) [Example 1416], the Emax turned out to be 87.5% and the EC50 is 0.001 to 0.1 µM.

Regarding `O=C(NS(=O)(=O)C1CC1)c1ccc2nc(N3C4CCC3CC(NCc3c(-c5c(F)cccc5F)noc3C3CC3)C4)sc2c1` (stereo not drawn) [Example 1417], the Emax was found to be 69% and the EC50 was 0.001 to 0.1 µM.

`O=C(O)c1ccc2nc(N3C4CCC3CC(NCc3c(-c5ccccc5C(F)(F)F)noc3C3CC3)C4)oc2c1` (stereo not drawn) [Example 1418]: the Emax is 102% and the EC50 was 0.001 to 0.1 µM.

`O=C(O)c1cc(C2CC2)c2nc(N3C4CCC3CC(NCc3c(-c5c(F)cccc5F)noc3C3CC3)C4)sc2c1` (stereo not drawn) [Example 1419]: the Emax came to 107% and the EC50 lay within 0.001 to 0.1 µM.
